Data from article PMC10045483, “Comparative Pharmacokinetic Study of 5 Active Ingredients after Oral Administration of Zuogui Pill in Osteoporotic Rats with Different Syndrome Types” (International Journal of Analytical Chemistry, 2023).
Read-outs that look alike come from different tables or passages of the source.

Legend:
[1] = Pharmacokinetic study of 5 compounds in rat plasma after oral administration of Zuogui Pill extract (HPLC-MS/MS, noncompartmental analysis); assay type: in vivo, Female Sprague-Dawley rats; settings: oral Zuogui Pill extract 1.5 mL/100 g; for Cmax / CL/F / MRT last / MRT inf / Tmax / half-life: female, Sprague-Dawley, rat, po, 1.5 mL/100 g; for Cmax / Tmax / half-life / AUC0–t / AUC0–∞ / t 1/2: n = 6; for CL/F: n = 6, read-out: CL_F_obs (converted); for MRT last: n = 6, read-out: MRT0–t; for MRT inf: n = 6, read-out: MRT0–∞
Procedure: Female Sprague-Dawley rats (180–220 g) were purchased from Shanghai Laboratory Animal Centre (Shanghai, China). The rats were maintained in a standard environment (22 ± 1°C, 60 ± 10% relative humidity, and a 12 h light/dark cycle) for one week to acclimate and fed water and food ad libitum. Twenty-four rats were divided randomly into […] and treated through ovary enucleation to establish the model of osteoporosis. Ten weeks after operation, osteoporosis models of kidney-yang-deficiency and kidney-yin-deficiency were established by intramuscular injection of hydrocortisone (25 mg/kg) and intragastric administration of thyroxine suspension (160 mg/kg) for 10 days, respectively. The femur of two rats from each group was then stained with hematoxylin and eosin (H&E) to assess histopathological change. Also, the validation of osteoporosis kidney-yang-deficiency and kidney-yin-deficiency models was judged by detecting the level of cyclic adenosine monophosphate (cAMP) and cyclic guanosine monophosphate (cGMP) in rat plasma. Laboratory Animal Management and Ethics Committee of Zhejiang Chinese Medical University approved all animal treatments (ZSLL-2014-48).
One hundred microliters of plasma was mixed with 100 μL of the IS solution, followed by 700 μL of methanol:acetonitrile (1 : 1). After 2 min of vortex mixing, the mixture was spun for 15 min at 8000 rpm and 4°C. The supernatants were collected and dried in a high-purity N2 environment. The residues were redissolved in 100 μL methanol and centrifuged for 15 min at 13000 rpm and 4°C. Finally, an aliquot of 10 μL supernatants was used to conduct the analysis.
Four groups of rats were orally administered with Zuogui Pill extract at a dose of 1.5 mL/100 g. Then, 0.3 mL blood samples were collected from orbital veins at 0, 0.08, 0.17, 0.25, 0.5, 1, 2, 4, 6, 8, 12, and 24 h after administration, placed in an anticoagulant tube, and centrifuged for 15 min at 5000 rpm and 4°C. The plasma was prepared and stored at −20°C until analysis.
Phoenix WinNonlin 6.4 software was used to estimate pharmacokinetic parameters using noncompartmental analysis. Furthermore, SPSS 26 software was used to compute comparisons of the pharmacokinetic data among the four groups according to a one-way ANOVA. The results are presented as mean ± SD.

[2] = Stability of analytes in rat plasma (QC samples) under storage conditions; settings: n = 5; for Stability, Room temperature for 4 h, Mean: 25°C; for Stability, Three freeze-thaw cycles, Mean: −20°C to 25°C
Procedure: QC samples at three levels using five replicates were used to evaluate the stability under the following conditions: 4 h at room temperature (25°C), 24 h in autosampler (4°C), and three freeze-thaw cycles (−20°C to 25°C).

[3] = osteoporosis rats (ovariectomized)
[4] = osteoporotic rats with kidney-yang-deficiency
[5] = osteoporotic rats with kidney-yin-deficiency
[6] = high QC (800, 16000, 3200, 400, 40 ng/mL in the same order)
[7] = middle QC (40, 800, 160, 20, 2 ng/mL in the same order)
[8] = low QC (2, 40, 8, 1, 0.1 ng/mL for chlorogenic acid, loganin, morroniside, aucubin, protocatechuic aldehyde)

SMILES: O=C(/C=C/c1ccc(O)c(O)c1)O[C@@H]1C[C@](O)(C(=O)O)C[C@@H](O)[C@H]1O [Chlorogenic acid, chlorogenic acid]
- Cmax ([1]; normal rats): 346 ± 64 ng/mL
- CL/F ([1]; normal rats): 15.2 mL/min/kg
- MRT last ([1]; normal rats): 5.46 ± 0.48 h
- MRT inf ([1]; normal rats): 8.17 ± 1.46 h
- Cmax [1, 3]: 279 ± 56.3 ng/mL
- Tmax [1, 3]: 0.26 ± 0.02 h
- half-life [1, 3]: 6.38 ± 1.96 h
- CL/F [1, 3]: 17.3 mL/min/kg
- MRT last [1, 3]: 6.78 ± 0.68 h
- MRT inf [1, 3]: 9.72 ± 2.61 h
- Cmax [1, 4]: 430 ± 98.5 ng/mL
- CL/F [1, 4]: 29.5 mL/min/kg
- MRT last [1, 4]: 4.52 ± 1.46 h
- MRT inf [1, 4]: 6.56 ± 2.64 h
- Cmax [1, 5]: 354 ± 83.8 ng/mL
- half-life [1, 5]: 6.61 ± 3.84 h
- CL/F [1, 5]: 37.1 mL/min/kg
- MRT last [1, 5]: 3.03 ± 0.38 h
- MRT inf [1, 5]: 4.1 ± 1.02 h
- AUC0–t ([1]; normal rats): 497.98 ± 34.72^∗ h∗ng/mL
- AUC0–∞ ([1]; normal rats): 546.26 ± 38.80 h∗ng/mL
- t 1/2 ([1]; normal rats): 8.17 ± 1.79 h
- AUC0–t [1, 3]: 435.76 ± 59.78 h∗ng/mL
- AUC0–∞ [1, 3]: 489.67 ± 77.69 h∗ng/mL
- AUC0–t [1, 4]: 263.13 ± 40.25^∗∗ h∗ng/mL
- AUC0–∞ [1, 4]: 284.31 ± 33.34^∗∗ h∗ng/mL
- t 1/2 [1, 4]: 5.41 ± 1.84 h
- AUC0–t [1, 5]: 218.55 ± 23.29^∗∗ h∗ng/mL
- AUC0–∞ [1, 5]: 225.89 ± 25.03^∗∗ h∗ng/mL
- Stability, Room temperature for 4 h, Mean [2, 6]: 85.7%
- Stability, Room temperature for 4 h, Mean [2, 7]: 85.9%
- Stability, Autosampler at 4°C for 24 h, Mean [2, 6]: 87.3%
- Stability, Autosampler at 4°C for 24 h, Mean [2, 7]: 93.7%
- Stability, Three freeze-thaw cycles, Mean [2, 6]: 80.9%
- Stability, Three freeze-thaw cycles, Mean [2, 7]: 89.3%

SMILES: COC(=O)C1=CO[C@@H](O[C@@H]2O[C@H](CO)[C@@H](O)[C@H](O)[C@H]2O)[C@@H]2[C@H](C)O[C@@H](O)C[C@H]12 [Morroniside, morroniside]
- Cmax ([1]; normal rats): 1720 ± 410 ng/mL
- Tmax ([1]; normal rats): 0.29 ± 0.1 h
- half-life ([1]; normal rats): 3.66 ± 1.18 h
- CL/F ([1]; normal rats): 49.4 mL/min/kg
- MRT last ([1]; normal rats): 3.41 ± 0.33 h
- MRT inf ([1]; normal rats): 3.66 ± 0.48 h
- Cmax [1, 3]: 1110 ± 163 ng/mL
- Tmax [1, 3]: 0.26 ± 0.02 h
- half-life [1, 3]: 2.4 ± 0.51 h
- CL/F [1, 3]: 59.2 mL/min/kg
- MRT last [1, 3]: 4.37 ± 0.43 h
- MRT inf [1, 3]: 4.51 ± 0.38 h
- Cmax [1, 4]: 1450 ± 337 ng/mL
- Tmax [1, 4]: 0.19 ± 0.04 h
- half-life [1, 4]: 3.83 ± 0.64 h
- CL/F [1, 4]: 59.4 mL/min/kg
- MRT last [1, 4]: 4.68 ± 0.24 h
- MRT inf [1, 4]: 5.03 ± 0.33 h
- Cmax [1, 5]: 1750 ± 321 ng/mL
- Tmax [1, 5]: 0.24 ± 0.03 h
- half-life [1, 5]: 2.9 ± 0.65 h
- CL/F [1, 5]: 28.3 mL/min/kg
- MRT last [1, 5]: 5.08 ± 0.74 h
- MRT inf [1, 5]: 5.21 ± 0.78 h
- AUC0–t ([1]; normal rats): 2151.00 ± 498.88 h∗ng/mL
- AUC0–∞ ([1]; normal rats): 2171.33 ± 509.45 h∗ng/mL
- AUC0–t [1, 3]: 1724.77 ± 149.05 h∗ng/mL
- AUC0–∞ [1, 3]: 1741.55 ± 136.08 h∗ng/mL
- AUC0–t [1, 4]: 1726.42 ± 217.11 h∗ng/mL
- AUC0–∞ [1, 4]: 1750.35 ± 215.20 h∗ng/mL
- AUC0–t [1, 5]: 3764.53 ± 842.38^∗∗ h∗ng/mL
- AUC0–∞ [1, 5]: 3782.41 ± 832.52^∗∗ h∗ng/mL
- Stability, Room temperature for 4 h, Mean [2, 6]: 98.3%
- Stability, Room temperature for 4 h, Mean [2, 8]: 90.8%
- Stability, Room temperature for 4 h, Mean [2, 7]: 86.1%
- Stability, Autosampler at 4°C for 24 h, Mean [2, 6]: 95.0%
- Stability, Autosampler at 4°C for 24 h, Mean [2, 8]: 89.6%
- Stability, Autosampler at 4°C for 24 h, Mean [2, 7]: 87.6%
- Stability, Three freeze-thaw cycles, Mean [2, 6]: 89.8%
- Stability, Three freeze-thaw cycles, Mean [2, 8]: 93.0%
- Stability, Three freeze-thaw cycles, Mean [2, 7]: 91.5%
